Experimental data as given in patent publication US5585492A, “LTA4 Hydrolase inhibitors” (priority 1994, dated 1996).
Like-named read-outs stand apart in the source and are kept apart here.

Experiments:
[1] = tested on: LTB4 production in mouse blood; assay: Murine Ex Vivo LTB4 Inhibition, calcium ionophore stimulated mouse blood after oral gavage; format: in vivo
Protocol: Leukotriene A4 hydrolass inhibitor compounds of the present invention were diluted to a predetermined concentration in phosphate buffered saline containing 2% DMSO and 1% Tween 80. The compounds were administered by oral gavage to adult male outbred mice weighing approximately 20-30 gm at a dose of 10 mg/kg body weight. (Compounds given at a dose of 50 mg/kg body weight are designtated in following Table by the symbol, *.) Sixty (60) minutes after administration of an LTA4 inhibitor compound of the invention, blood was collected (into heparin-containing tubes) from the retroorbital sinus. […] The mixture was incubated for 10 minutes at 37° C. in a humidified incubator. The reaction was terminated by centrifugation (833 g, 10 minutes at 4° C.). Supernatants were analyzed for LTB4 and thromboxane by commercially available enzyme-linked immunoassays [Caymen Chemical Co., Ann Arbor, Mich.] in accordance with the manufacturer's instructions. The percent inhibition was determined by comparison to animals treated identically except that the solution admininstered by oral gavage was devoid of inhibitor compound.

[2] = tested on: LTB4 production in human blood; assay: Inhibition of Calcium Ionophore-Induced LTB4 Production in Human Blood (HWB); format: cell-based; conditions: Homo sapiens, read-out: Inhibition of Calcium Ionophore-Induced LTB4 Production in Human Blood IC50 HWB
[3] = target: T1, recombinant human LTA4 hydrolase (Homo sapiens, UniProt P09960); assay: Recombinant Human LTA4 Hydrolase Assay for LTA4 Hydrolase Inhibitor Activity (LTB4 by enzyme-linked immunoassay); format: biochemical; conditions: read-out: Recombinant Human LTA4 Hydrolase Assay IC50 LTA4H
T1 construct: made in house; host or cells: Spodoptera frugiperda Sf-9 cells, baculovirus (AcNPV) expression vector
T1 sequence (P09960 1-611): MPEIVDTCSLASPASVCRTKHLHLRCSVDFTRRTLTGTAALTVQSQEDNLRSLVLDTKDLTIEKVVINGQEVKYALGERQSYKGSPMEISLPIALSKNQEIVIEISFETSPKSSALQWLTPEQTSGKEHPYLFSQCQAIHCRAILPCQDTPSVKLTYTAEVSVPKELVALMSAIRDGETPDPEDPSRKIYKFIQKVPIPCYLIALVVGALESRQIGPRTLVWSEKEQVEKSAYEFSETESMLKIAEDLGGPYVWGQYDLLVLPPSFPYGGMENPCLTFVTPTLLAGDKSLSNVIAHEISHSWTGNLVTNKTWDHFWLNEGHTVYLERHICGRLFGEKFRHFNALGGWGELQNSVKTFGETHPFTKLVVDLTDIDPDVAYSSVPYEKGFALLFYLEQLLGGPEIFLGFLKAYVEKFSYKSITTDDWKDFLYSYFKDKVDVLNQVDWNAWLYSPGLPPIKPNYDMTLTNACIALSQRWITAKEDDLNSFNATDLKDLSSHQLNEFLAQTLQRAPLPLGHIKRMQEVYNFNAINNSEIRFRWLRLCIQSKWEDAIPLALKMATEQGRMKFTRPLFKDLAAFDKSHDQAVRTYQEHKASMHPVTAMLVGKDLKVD
Protocol: Compounds of the present invention were tested for LTA4 hydrolase inhibitor activity against recombinant human LTA4 hydrolase (rhLTA4 H). […] Briefly, LTA4 hydrolase encoding DNA was amplified by polymerase chain reaction using a pair of oligonucleotide primers based on the nucleotide sequence from the 5'-end, and the complement of the 3'-end, of the coding region of the LTA4 hydrolase gene, the nucleotide sequence of which gene is known. […] A λgtll human placental cDNA library (Clonetech, Palo Alto, Calif.) provided the nucleic acid template.
One or more predetermined amounts of a compound of the invention were incubated in assay buffer (0.1M potassium phosphate, 5 mg/ml fatty acid free BSA, 10% DMSO, pH 7.4) for 10 minutes at room temperature with 250 ng of recombinant hLT4 H to allow binding, if any, between the enzyme and inhibitor. The stock enzyme solution was 1 mg/ml LTA4 hydrolase, 50 mM Tris, pH 8.0, 150 mM NaCl, 2.5 mM beta-mercaptoethanol, 50% glycerol. […] LTA4 (i.e., substrate) was prepared from the methyl ester of LTA4 (Biomol, Inc., Plymouth Meeting, Pa.) by treating the methyl ester with 30 molar equivalents of LiOH at room temperature for 18 hours. The LTA4 substrate in its free acid form was kept frozen at -80° C. until needed. […] Each reaction was carried out at room temperature for 10 minutes. The reaction was stopped by diluting 25 μl of the reaction mixture with 500 μl of the assay buffer without DMSO. LTB4 was quantified in the diluted sample by a commercially available enzyme-linked immunoassay [Caymen Chemical Co., Ann Arbor, Mich.] using the method recommended in the manufacturer's instructions and compared to the amount of LTB4 produced in a negative control (i.e., essentially identical conditions except without addition of an inhibitor compound). The IC50 was routinely calculated from the data produced.

LTA4 hydrolase = conditions: cited from earlier work
[4] = human whole blood, A23187 20 mcg/ml

SMILES	IC50 [3] [nM]	Murine Ex Vivo LTB4 Inhibition % I LTB4 at 1 hour after administration of 10 mg/kg ([1]; oral gavage, 10 mg/kg, 1 hour) [%]	IC50 [2, 4] [nM]	other results
c1ccc(Cc2ccc(OCCn3cnc4cnccc43)cc2)cc1 [Example 340B]		64	330	
COC(=O)CCN(C)CCCOc1ccc(Cc2ccsc2)cc1 [Example 330]		95	90	
COC(=O)C1CC2CCC(C1)N2CCOc1ccc(Cc2ccccc2)cc1 (stereo not drawn) [Example 278]	22	95		IC50 [2]: 247 nM
c1ccc(Cc2ccc3c(c2)CC(Cn2ccc4ncnc-4c2)O3)cc1 (stereo not drawn) [Example 358C]		13	590	
c1ccc(Cc2ccc(OCCn3cccc4ncnc3-4)cc2)cc1 [Example 338A]	140	22		IC50 [2]: 690 nM
COC(=O)CCN(C)CCCOc1ccc(Cc2ccccc2)s1 [Example 375]		67	240	
O=C(O)C1CCN(CCOc2ccc(Cc3ccccc3)cc2)CC1 [Example 429]		80	288	
CCOC(=O)CNCCCCCOc1ccc(Cc2ccccc2)cc1 [Example 321]	250	87	421	
Fc1cc(OCCN2CCCC2)ccc1Cc1ccccc1 [Example 116]	53	18	1090	
C[C@H](CS)C(=O)N1CCC[C@H]1C(=O)O [captopril]				LTA4 hydrolase inhibitory activity (in words) (LTA4 hydrolase): exhibit LTA4 hydrolase inhibitory activity
c1ccc(Cc2ccc(OCCn3cnc4ncncc43)cc2)cc1 [Example 357A]		57		
Clc1cccc(COc2ccc(OCCN3CCCC3)cc2)c1 [Example 206]		0	1650	
CCOC(=O)CCNCCCCOc1ccc(Cc2ccccc2)cc1 [Example 272]	7	97	76	
CN(CCCOc1ccc(Cc2ccc(F)cc2)cc1)CCC(=O)O [Example 336]	31	99	187	
CCOC(=O)C1CCN(CCOc2ccc(Cc3ccccc3)cc2)CC1 [Example 245]		97	147	
COC(=O)C1CC2CCC(C1)N2CC1Cc2cc(Cc3ccccc3)ccc2O1 (stereo not drawn) [Example 283]		90		IC50 [2]: 90 nM
CNC(=O)C1CCN(CCOc2ccc(Cc3ccccc3)cc2)CC1 [Example 420]	57	93	133	
CCOC(=O)CNCCCCOc1ccc(Cc2ccccc2)cc1 [Example 320]	14	85	354	
c1ccc(Cc2ccc3c(c2)CC(Cn2cnc4cnccc42)O3)cc1 (stereo not drawn) [Example 358B]		33	640	
CC(C)C[C@H](NC(=O)[C@@H](O)[C@H](N)Cc1ccccc1)C(=O)O [bestatin]				LTA4 hydrolase inhibitory activity (in words) (LTA4 hydrolase): exhibit LTA4 hydrolase inhibitory activity
c1ccc(Cc2ccc(OCCN3CCCC3)cc2)cc1 [Example 45]	26	35		IC50 [2]: 116 nM
CCOC(=O)C1CCN(CCOc2ccc(Cc3ccccc3)s2)CC1 [Example 370]		96	680	
CC1CCCC(C)N1CCOc1ccc(Cc2ccccc2)cc1 (stereo not drawn) [Example 402]		58		
NC(=O)N1CCN(CCOc2ccc(Cc3ccccc3)cc2)CC1 [Example 459]	1110	44	2400	

Further lines, with some results ahead:

IC50 [3] [nM]	SMILES	Murine Ex Vivo LTB4 Inhibition % I LTB4 at 1 hour after administration of 10 mg/kg ([1]; oral gavage, 10 mg/kg, 1 hour) [%]	IC50 [2, 4] [nM]	other results
7	c1ccc(Cc2ccc(OCCN3CCCC3)nc2)cc1 [Example 112]			Murine Ex Vivo LTB4 Inhibition % I LTB4 at 1 hour after administration of 50 mg/kg (*) ([1]; in vivo, po): 82%
69	c1csc(Cc2ccc(OCCN3CCCC3)cc2)n1 [Example 121]	48		
390	COC(=O)CC1CCN(CCOc2ccc(Cc3ccccc3)cc2)C1 (stereo not drawn) [Example 275]	75	146	
15	COC(=O)CC1CC2CC1CN2CCOc1ccc(Cc2ccccc2)cc1 (stereo not drawn) [Example 304]			Murine Ex Vivo LTB4 Inhibition % I LTB4 at 1 hour after administration of 10 mg/kg ([1]; in vivo, po): 80%
5070	Nc1ccc2c(c1)ncn2CCOc1ccc(Cc2ccccc2)cc1 [Example 362A]	28	3350	
73	Cn1c(=O)c2c(ncn2CCOc2ccc(Cc3ccccc3)cc2)n(C)c1=O [Example 353]	0	260	
240	c1ccc(Cc2ccc(OCCN3CCC(c4nnn[nH]4)CC3)cc2)cc1 [Example 450]	91		
30	c1ccc(Oc2ccc(OCCN3CCCC3)cc2)cc1 [Example 44, 1-[2-(4-phenoxyphenoxy)ethyl]pyrrolidine]	25		
8	c1ccc(Cc2ccc(OCCn3cnc4ncccc43)cc2)cc1 [Example 338B]		330	Murine Ex Vivo LTB4 Inhibition % I LTB4 at 1 hour after administration of 50 mg/kg (*) ([1]; oral gavage, 50 mg/kg (*), 1 hour): 92%
87	c1cncc(Cc2ccc(OCCN3CCCC3)cc2)c1 [Example 125]	46		
520	CC(=O)N1CCN(CCOc2ccc(Cc3ccccc3)cc2)CC1 [Example 277]	42	546	
132	NC(=O)C1CCN(CCOc2ccc(Cc3ccccc3)cc2)CC1 [Example 242]	95	608	
11	FC(F)(c1ccccc1)c1ccc(OCCN2CCCC2)cc1 [Example 67]	0		
77	c1ncc(Cc2ccc(OCCN3CCCC3)cc2)s1 [Example 122]	57		
190	c1nc(Cc2ccc(OCCN3CCCC3)cc2)cs1 [Example 49]	46		
